Measured values published in US10947226B2, “Bicyclic pyridone lactams and methods of use thereof” (Genentech, Inc., priority 2016, dated 2021).

Molecular target: human RIP1 kinase domain (2-375) (Homo sapiens (Human), UniProt Q13546)
Assay: RIP1 kinase inhibition assay (biochemical, Transcreener ADP fluorescence polarization)
Conditions: Ki app (Morrison tight-binding fit); 50 nM enzyme, 50 μM ATP, 2 hours incubation, pH 7.5
Procedure: RIP1 Kinase Inhibition Assays (Biochemical Assay)
The compounds of the present invention were tested for their capacity to inhibit RIP1K activity as described below.
Enzyme assay: The ability of the receptor interacting protein kinase (RIPK1) to catalyze the hydrolysis of adenosine-5′-triphosphate (ATP) is monitored using the Transcreener ADP (adenosine-5′-diphosphate) assay (BellBrook Labs). Purified human RIP1 kinase domain (2-375) (50 nM) derived from a baculovirus-infected insect cell expression system is incubated with test compounds for 2 hours in 50 mM Hepes buffer (pH 7.5) containing 30 mM MgCl2, 1 mM dithiothreitol, 50 μM ATP, 0.002% Brij-35, and 0.5% dimethyl sulfoxide (DMSO). Reactions are quenched by the addition of 1× Bell Brooks Stop buffer B (20 mM Hepes (ph 7.5), 40 mM ethylenediaminetetraacetic acid and 0.02% Brij-35) containing an additional 12 mM EDTA and 55 μg/mL ADP2 antibody and 4 nM ADP-AlexaFluor® 633 tracer. The tracer bound to the antibody is displaced by the ADP generated during the RIP1K reaction, which causes a decrease in fluorescence polarization that is measured by laser excitation at 633 nm with a FP microplate reader M1000. Fractional activity was plotted against test article concentration. Using Genedata Screener software (Genedata; Basel, Switzerland), the data were fit to the tight-binding apparent inhibition constant (Ki^app) Morrison equation [Williams, J. W. and Morrison, J. F. (1979) The kinetics of reversible tight-binding inhibition. Methods Enzymol 63: 437-67]. The following equation was used to calculate fractional activity and Ki^app: […]
where [E]T and [I]T are the total concentrations of active enzyme and test article, respectively. […]

human RIP1 kinase domain (2-375), sequence (Q13546 2-375): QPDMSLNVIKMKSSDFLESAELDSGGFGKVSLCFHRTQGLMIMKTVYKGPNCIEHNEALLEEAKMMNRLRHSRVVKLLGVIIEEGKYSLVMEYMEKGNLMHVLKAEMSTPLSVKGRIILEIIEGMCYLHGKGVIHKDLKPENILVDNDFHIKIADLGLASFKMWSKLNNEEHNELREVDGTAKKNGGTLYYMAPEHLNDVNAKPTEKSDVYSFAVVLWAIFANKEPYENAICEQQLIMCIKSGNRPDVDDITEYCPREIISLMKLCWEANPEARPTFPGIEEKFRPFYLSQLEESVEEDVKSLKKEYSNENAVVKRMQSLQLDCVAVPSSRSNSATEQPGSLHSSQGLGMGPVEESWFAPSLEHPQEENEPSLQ

| SMILES | Ki [nM] |
| --- | --- |
| CN1C(=O)[C@@H](NC(=O)c2ncn(Cc3ccccc3F)n2)CCn2c1cccc2=O (single isomer, unassigned) [Example 4] | 290 |
| CN1C(=O)[C@@H](NC(=O)c2ncn(Cc3ccccc3)n2)CCc2cc(=O)n(C)cc21 (single isomer, unassigned) [Example 7] | 173 |
| CCn1cc2c(cc1=O)N(C)C(=O)[C@@H](NC(=O)c1ncn(Cc3ccccc3F)n1)CC2 (single isomer, unassigned) [Example 19] | 110 |
| CCn1cc2c(cc1=O)N(C)C(=O)[C@@H](NC(=O)c1nc3n(n1)[C@H](c1ccccc1F)CC3)CC2 (single isomer, unassigned) [Example 18] | 110 |
| CN1C(=O)[C@@H](NC(=O)c2ncn(Cc3ccccc3)n2)CCc2c1ccc(=O)n2C (single isomer, unassigned) [Example 1] | 233 |
| CN1C(=O)[C@H](NC(=O)c2ncn(Cc3ccccc3)n2)CCc2c1ccc(=O)n2C (single isomer, unassigned) [Example 23] | > 10000 |
| CCn1cc2c(cc1=O)N(C)C(=O)[C@H](NC(=O)c1ncn(Cc3ccccc3F)n1)CC2 (single isomer, unassigned) [Example 21] | > 10000 |
| CCn1cc2c(cc1=O)N(C)C(=O)[C@H](NC(=O)c1nc3n(n1)[C@H](c1ccccc1F)CC3)CC2 (single isomer, unassigned) [Example 20] | > 10000 |
| CN1C(=O)[C@@H](NC(=O)c2ncn(Cc3ccccc3)n2)CCn2c1cccc2=O (single isomer, unassigned) [Example 3] | 489 |
| CN1C(=O)[C@H](NC(=O)c2nc3n(n2)[C@H](c2ccccc2F)CC3)CCc2cc(=O)n(C)cc21 (single isomer, unassigned) [Example 12] | > 10000 |
| CN1C(=O)[C@@H](NC(=O)c2ncn(Cc3ccccc3)n2)CCc2cn(C)c(=O)cc21 (single isomer, unassigned) [Example 5] | 79 |
| CN1C(=O)[C@@H](NC(=O)c2ncn(Cc3ccccc3F)n2)CCc2c1ccc(=O)n2C (single isomer, unassigned) [Example 2] | 156 |
| CN1C(=O)[C@H](NC(=O)c2ncn(Cc3ccccc3F)n2)CCc2c1ccc(=O)n2C (single isomer, unassigned) [Example 22] | > 10000 |
| CN1C(=O)[C@@H](NC(=O)c2nc3n(n2)[C@H](c2ccccc2F)CC3)CCc2cc(=O)n(C)cc21 (single isomer, unassigned) [Example 11] | 231 |
| CN1C(=O)[C@H](NC(=O)c2nc3n(n2)[C@H](c2ccccc2F)CC3)CCc2cn(CC3CC3)c(=O)cc21 (single isomer, unassigned) [Example 16] | 6900 |
| CN1C(=O)[C@@H](NC(=O)c2ncn(Cc3ccccc3F)n2)CCc2cn(CC3CC3)c(=O)cc21 (single isomer, unassigned) [Example 15] | 39 |
| CN1C(=O)[C@H](NC(=O)c2ncn(Cc3ccccc3F)n2)CCc2cn(CC3CC3)c(=O)cc21 (single isomer, unassigned) [Example 17] | 6900 |
| CN1C(=O)[C@H](NC(=O)c2ncn(Cc3ccccc3F)n2)CCc2cc(=O)n(C)cc21 (single isomer, unassigned) [Example 10] | > 10000 |
| CN1C(=O)[C@@H](NC(=O)c2nc3n(n2)[C@H](c2ccccc2F)CC3)CCc2cn(CC3CC3)c(=O)cc21 (single isomer, unassigned) [Example 14] | 56 |
| CN1C(=O)[C@@H](NC(=O)c2nc3n(n2)[C@H](c2ccccc2F)CC3)CCc2cn(C)c(=O)cc21 [Example 13, (5S)-5-(2-fluorophenyl)-N-[(3S)-1,7-dimethyl-2,8-dioxo-4,5-dihydro-3H-pyrido[4,3-b]azepin-3-yl]-6,7-dihydro-5H-pyrrolo[1,2-b][1,2,4]triazole-2-carboxamide] | 81.1 |
| CN1C(=O)[C@@H](NC(=O)c2ncn(Cc3ccccc3F)n2)CCc2cn(C)c(=O)cc21 (single isomer, unassigned) [Example 6] | 49 |
| CN1C(=O)[C@@H](NC(=O)c2ncn(Cc3ccccc3F)n2)CCc2cc(=O)n(C)cc21 (single isomer, unassigned) [Example 9] | 111 |
| CN1C(=O)[C@H](NC(=O)c2ncn(Cc3ccccc3)n2)CCc2cc(=O)n(C)cc21 (single isomer, unassigned) [Example 8] | > 10000 |
